A short description of one assay: cells. Conditions: Mus musculus, Ba/F3 EGFR-L858R, 72 h.
For assay [1], the system named is BaF3. As to the kind of experiment: cells. The note with it: Mus musculus, BaF3, 72 h.
In assay [2] the target is Epidermal growth factor receptor (Homo sapiens, UniProt P00533, L858R). In words: Inhibition of EGFR L858R mutant (unknown origin) harboring cysteine at alphaD-1 position by LanthaScreen assay. For orientation: TR-FRET usually uses a lanthanide donor and a delayed reading to cut background.
For assay [3], the target named is T1, Tyrosine-protein kinase JAK3 (Homo sapiens, UniProt P52333).
T1 sequence (P52333 whole entry): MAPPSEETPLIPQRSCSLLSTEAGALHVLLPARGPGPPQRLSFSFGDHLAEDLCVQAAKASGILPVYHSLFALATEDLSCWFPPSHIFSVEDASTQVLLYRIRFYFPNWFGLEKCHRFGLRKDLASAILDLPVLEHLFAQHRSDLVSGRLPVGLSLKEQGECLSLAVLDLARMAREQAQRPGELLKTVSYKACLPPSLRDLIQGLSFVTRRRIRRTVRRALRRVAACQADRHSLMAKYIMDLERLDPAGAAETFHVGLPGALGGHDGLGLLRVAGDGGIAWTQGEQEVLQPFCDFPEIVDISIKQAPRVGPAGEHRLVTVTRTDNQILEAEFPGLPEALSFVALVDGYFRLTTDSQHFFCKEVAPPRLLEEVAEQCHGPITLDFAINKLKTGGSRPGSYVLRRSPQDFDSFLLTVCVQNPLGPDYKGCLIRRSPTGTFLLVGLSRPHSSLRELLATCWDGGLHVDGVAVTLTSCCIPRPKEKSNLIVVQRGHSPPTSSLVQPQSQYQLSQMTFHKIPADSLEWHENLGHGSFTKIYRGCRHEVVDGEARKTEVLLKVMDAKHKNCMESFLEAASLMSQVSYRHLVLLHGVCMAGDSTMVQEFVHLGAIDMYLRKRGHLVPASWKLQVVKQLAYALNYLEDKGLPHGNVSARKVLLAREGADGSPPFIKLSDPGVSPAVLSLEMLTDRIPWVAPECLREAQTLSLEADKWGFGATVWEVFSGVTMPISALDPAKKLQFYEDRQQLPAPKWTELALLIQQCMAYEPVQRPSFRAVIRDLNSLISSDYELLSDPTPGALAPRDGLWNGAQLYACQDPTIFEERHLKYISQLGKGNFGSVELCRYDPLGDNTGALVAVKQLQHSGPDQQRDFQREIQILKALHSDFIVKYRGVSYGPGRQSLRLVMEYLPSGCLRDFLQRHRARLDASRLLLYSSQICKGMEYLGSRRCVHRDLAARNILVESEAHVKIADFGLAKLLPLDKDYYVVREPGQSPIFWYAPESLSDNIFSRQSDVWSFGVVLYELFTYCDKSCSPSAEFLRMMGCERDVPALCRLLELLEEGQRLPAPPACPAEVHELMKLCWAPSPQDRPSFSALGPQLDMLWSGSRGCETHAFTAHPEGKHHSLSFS
As to the kind of experiment: Inhibition of JAK3 (unknown origin) harboring cysteine at alphaD-1 position by LanthaScreen assay.

The target of assay [4] is T2, Tyrosine-protein kinase BTK (Homo sapiens, UniProt Q06187). As to the kind of experiment: Inhibition of BTK (unknown origin) harboring cysteine at alphaD-1 position by LanthaScreen assay.
T2 sequence (Q06187 whole entry): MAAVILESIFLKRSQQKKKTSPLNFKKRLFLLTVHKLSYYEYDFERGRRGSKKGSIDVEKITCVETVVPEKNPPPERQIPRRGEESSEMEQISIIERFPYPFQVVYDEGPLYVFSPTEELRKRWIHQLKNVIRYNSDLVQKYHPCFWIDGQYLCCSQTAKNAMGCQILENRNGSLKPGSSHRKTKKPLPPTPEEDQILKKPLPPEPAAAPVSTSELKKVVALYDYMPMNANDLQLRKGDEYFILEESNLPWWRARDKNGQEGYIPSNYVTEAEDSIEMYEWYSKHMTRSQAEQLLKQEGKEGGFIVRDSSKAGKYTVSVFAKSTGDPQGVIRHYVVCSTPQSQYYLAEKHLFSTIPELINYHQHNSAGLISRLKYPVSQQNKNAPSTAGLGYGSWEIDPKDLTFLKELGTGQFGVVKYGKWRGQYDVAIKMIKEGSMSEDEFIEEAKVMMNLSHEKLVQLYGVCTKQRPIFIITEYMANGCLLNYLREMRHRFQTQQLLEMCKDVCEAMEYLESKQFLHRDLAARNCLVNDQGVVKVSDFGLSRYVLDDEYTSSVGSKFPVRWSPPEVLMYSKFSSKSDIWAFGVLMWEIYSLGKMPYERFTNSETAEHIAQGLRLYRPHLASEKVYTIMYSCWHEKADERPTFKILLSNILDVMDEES
The target of assay [5] is T3, Tyrosine-protein kinase Blk (Homo sapiens, UniProt P51451). In words: Inhibition of BLK (unknown origin) harboring cysteine at alphaD-1 position by LanthaScreen assay.
T3 sequence (P51451 whole entry): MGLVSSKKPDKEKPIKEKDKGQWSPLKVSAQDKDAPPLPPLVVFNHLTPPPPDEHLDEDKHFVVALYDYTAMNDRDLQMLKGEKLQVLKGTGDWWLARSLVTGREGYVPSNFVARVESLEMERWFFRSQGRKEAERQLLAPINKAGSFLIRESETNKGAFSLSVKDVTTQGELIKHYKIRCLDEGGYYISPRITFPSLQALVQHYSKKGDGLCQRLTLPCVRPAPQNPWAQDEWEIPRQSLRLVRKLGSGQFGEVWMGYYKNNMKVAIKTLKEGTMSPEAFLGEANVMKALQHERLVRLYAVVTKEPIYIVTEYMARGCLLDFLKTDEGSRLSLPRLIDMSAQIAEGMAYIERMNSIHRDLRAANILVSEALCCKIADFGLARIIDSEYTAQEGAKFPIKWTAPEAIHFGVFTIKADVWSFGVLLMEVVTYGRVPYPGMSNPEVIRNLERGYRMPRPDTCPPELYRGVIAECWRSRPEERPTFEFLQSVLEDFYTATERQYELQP
Assay [6] deals with T3, Tyrosine-protein kinase Blk. As to the kind of experiment: Displacement of K-4 tracer from wild type BLK in HEK293T cells expressing NanoLuc preincubated for 3 hrs followed by tracer addition and measured after 1 hr by NanoBRET analysis. In kind it is cell-based. On the technique in general: In BRET a luciferase serves as donor, and the signal depends on an acceptor being close.

For assay [7], the target named is T2, Tyrosine-protein kinase BTK. In words: Displacement of K-10 tracer from wild type BTK in HEK293T cells expressing NanoLuc preincubated for 3 hrs followed by tracer addition and measured after 1 hr by NanoBRET analysis. Type of assay: cell-based.
Assay [8] concerns BaF3. In words: Inhibition of biotinylated osimertinib binding to EGFR L858R mutant in mouse BaF3 cells at 0.2 to 10 uM preincubated for 3 hrs followed by biotinylated osimertinib addition and incubated overnight by competitive pulldown based Western blot analysis. Type of assay: cell-based. The note with it: dose 0.2-10 µM. Background: Immunoblotting shows a protein as a band on a membrane.

The target of assay [9] is T2, Tyrosine-protein kinase BTK. As to the kind of experiment: Inhibition of biotinylated ibrutinib binding to BTK in human MINO cells at 0.2 to 10 uM preincubated for 3.5 hrs followed by biotinylated ibrutinib addition and incubated overnight by competitive pulldown based Western blot analysis. Type of assay: cell-based. Conditions: dose 0.2-10 µM.
For assay [10], the target named is Epidermal growth factor receptor (Mus musculus) (UniProt Q01279). As to the kind of experiment: Inhibition of EGFR phosphorylation at Y1068 residue in mouse Ba/F3 EGFR-L858R cells at 0.2 to 10 uM incubated for 6 hrs by Western blot analysis. In kind it is cell-based. The note with it: dose 0.2-10 µM.
Sequence of Epidermal growth factor receptor (Mus musculus) (Q01279 whole entry): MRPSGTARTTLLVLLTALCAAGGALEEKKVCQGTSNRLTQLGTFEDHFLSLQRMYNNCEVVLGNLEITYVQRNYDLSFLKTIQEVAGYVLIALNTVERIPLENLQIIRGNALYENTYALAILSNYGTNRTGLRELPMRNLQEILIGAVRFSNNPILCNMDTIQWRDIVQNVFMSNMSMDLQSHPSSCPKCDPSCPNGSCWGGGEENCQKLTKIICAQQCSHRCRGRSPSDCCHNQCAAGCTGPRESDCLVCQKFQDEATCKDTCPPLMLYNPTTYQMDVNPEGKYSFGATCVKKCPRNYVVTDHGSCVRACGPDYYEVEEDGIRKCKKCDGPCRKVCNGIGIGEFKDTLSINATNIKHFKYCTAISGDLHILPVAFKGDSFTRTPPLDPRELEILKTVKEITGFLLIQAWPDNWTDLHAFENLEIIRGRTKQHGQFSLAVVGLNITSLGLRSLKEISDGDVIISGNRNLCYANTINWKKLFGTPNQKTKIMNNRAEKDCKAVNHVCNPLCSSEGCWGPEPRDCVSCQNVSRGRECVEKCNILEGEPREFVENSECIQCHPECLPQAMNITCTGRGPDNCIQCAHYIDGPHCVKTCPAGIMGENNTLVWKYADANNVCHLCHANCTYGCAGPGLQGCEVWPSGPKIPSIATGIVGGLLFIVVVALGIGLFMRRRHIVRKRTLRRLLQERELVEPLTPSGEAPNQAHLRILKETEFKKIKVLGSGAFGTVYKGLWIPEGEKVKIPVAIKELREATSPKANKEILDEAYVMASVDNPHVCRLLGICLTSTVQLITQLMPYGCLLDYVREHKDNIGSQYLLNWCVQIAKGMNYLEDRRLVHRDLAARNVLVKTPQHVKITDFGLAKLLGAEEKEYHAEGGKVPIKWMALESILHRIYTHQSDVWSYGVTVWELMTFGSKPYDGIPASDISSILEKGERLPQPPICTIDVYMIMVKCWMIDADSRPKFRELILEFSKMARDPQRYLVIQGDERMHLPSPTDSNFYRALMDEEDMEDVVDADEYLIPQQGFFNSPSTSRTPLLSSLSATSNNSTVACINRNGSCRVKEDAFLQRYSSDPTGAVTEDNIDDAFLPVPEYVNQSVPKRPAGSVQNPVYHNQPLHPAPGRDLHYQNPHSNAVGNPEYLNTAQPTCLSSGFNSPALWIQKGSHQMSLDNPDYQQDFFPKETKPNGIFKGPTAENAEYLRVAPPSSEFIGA
In assay [11] the target is Mitogen-activated protein kinase 1 and 3 (ERK2 and ERK1) (Mus musculus) (UniProt P63085+Q63844). As to the kind of experiment: Inhibition of ERK1/2 phosphorylation at T202/Y204 residues in mouse Ba/F3 EGFR-L858R cells at 0.2 to 10 uM incubated for 6 hrs by Western blot analysis. The note with it: dose 0.2-10 µM. Type of assay: cell-based.
Sequence of Mitogen-activated protein kinase 1 and 3 (ERK2 and ERK1) (Mus musculus) (P63085 whole entry, looked up): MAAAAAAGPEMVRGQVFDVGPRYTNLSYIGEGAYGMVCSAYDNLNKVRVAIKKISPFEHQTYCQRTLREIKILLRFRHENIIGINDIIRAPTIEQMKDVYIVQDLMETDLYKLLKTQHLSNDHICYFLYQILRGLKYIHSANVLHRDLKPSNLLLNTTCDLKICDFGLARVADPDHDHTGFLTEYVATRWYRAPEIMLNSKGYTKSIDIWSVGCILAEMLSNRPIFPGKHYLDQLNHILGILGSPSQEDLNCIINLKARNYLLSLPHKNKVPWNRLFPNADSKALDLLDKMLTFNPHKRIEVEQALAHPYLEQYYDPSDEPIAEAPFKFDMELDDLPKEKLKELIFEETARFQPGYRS
Sequence of Mitogen-activated protein kinase 1 and 3 (ERK2 and ERK1) (Mus musculus) (Q63844 whole entry, looked up): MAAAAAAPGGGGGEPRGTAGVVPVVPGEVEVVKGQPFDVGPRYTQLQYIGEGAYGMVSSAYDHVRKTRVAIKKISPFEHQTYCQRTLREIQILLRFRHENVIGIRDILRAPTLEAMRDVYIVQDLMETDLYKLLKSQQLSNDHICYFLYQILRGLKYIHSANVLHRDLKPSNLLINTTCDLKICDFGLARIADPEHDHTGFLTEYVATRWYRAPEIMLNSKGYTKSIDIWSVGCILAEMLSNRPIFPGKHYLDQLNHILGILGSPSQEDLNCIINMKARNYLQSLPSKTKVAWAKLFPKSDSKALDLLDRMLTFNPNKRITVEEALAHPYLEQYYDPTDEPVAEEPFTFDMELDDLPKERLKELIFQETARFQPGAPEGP
The target of assay [12] is RAC-alpha serine/threonine-protein kinase (Mus musculus) (UniProt P31750). As to the kind of experiment: Inhibition of AKT phosphorylation at S473 residue in mouse Ba/F3 EGFR-L858R cells at 0.2 to 10 uM incubated for 6 hrs by Western blot analysis. Type of assay: cell-based. The note with it: dose 0.2-10 µM.
Sequence of RAC-alpha serine/threonine-protein kinase (Mus musculus) (P31750 whole entry, the tested form may be a part): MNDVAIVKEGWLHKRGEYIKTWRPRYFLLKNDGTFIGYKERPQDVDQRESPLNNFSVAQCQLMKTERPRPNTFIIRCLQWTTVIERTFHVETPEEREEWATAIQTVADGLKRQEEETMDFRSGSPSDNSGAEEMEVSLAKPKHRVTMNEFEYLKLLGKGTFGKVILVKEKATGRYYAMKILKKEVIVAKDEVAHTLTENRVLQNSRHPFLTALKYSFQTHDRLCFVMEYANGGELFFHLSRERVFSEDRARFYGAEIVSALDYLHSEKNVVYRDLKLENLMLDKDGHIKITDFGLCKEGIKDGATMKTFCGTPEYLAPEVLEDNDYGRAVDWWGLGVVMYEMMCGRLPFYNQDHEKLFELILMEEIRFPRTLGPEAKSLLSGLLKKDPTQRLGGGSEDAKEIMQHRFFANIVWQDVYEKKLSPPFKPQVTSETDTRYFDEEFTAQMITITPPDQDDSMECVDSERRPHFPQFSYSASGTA
Assay [13] addresses Epidermal growth factor receptor (Homo sapiens) (UniProt P00533). As to the kind of experiment: Binding affinity to N-terminal protease cleavable His-GST tagged wild type human EGFR (696 to 1022 residues) expressed as baculovirus infected Sf9 cells assessed as mass shift at 10 fold molar excess incubated for 2 hrs by LC-MS/MS analysis.
Assay [14] relates to Epidermal growth factor receptor (Homo sapiens), P00533 [L858R,T790M]. In words: Binding affinity to Cys797 residue of trypsin digested EGFR L858R/T790M mutant (unknown origin) by Nano-LC-MS/MS analysis.
For assay [15], the target named is T2, Tyrosine-protein kinase BTK. In words: Binding affinity to human BTK harboring cysteine at alphaD-1 position at 10 uM by Kinomescan analysis.
The target in assay [16] is T4, Tyrosine-protein kinase JAK3 (Homo sapiens) (UniProt P52333).
T4 sequence (whole entry): T1 sequence (P52333 whole entry)
In words: Binding affinity to human JAK3 JH1 domain harboring cysteine at alphaD-1 position at 10 uM by Kinomescan analysis.

The target in assay [17] is Epidermal growth factor receptor (Homo sapiens) (UniProt P00533). As to the kind of experiment: Binding affinity to human EGFR harboring cysteine at alphaD-1 position at 10 uM by Kinomescan analysis.
The target of assay [18] is T5, Dual specificity mitogen-activated protein kinase kinase 7 (Homo sapiens) (UniProt O14733).
T5 sequence (whole entry): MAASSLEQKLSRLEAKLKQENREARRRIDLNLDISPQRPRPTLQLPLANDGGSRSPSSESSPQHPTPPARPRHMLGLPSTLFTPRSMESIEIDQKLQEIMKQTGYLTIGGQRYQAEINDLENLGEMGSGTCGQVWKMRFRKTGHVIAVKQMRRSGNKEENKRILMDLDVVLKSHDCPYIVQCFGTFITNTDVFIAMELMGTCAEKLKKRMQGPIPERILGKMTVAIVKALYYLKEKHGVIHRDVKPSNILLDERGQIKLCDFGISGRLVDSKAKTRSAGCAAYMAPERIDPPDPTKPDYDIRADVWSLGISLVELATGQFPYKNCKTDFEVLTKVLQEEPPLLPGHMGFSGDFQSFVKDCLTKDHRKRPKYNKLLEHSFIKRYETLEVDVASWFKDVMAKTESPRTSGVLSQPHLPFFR
In words: Binding affinity to human MKK7 harboring cysteine at alphaD-1 position at 10 uM by Kinomescan analysis.

For assay [19], the target named is T6, Dual specificity mitogen-activated protein kinase kinase 5 (Homo sapiens, UniProt Q13163).
T6 sequence (Q13163 whole entry): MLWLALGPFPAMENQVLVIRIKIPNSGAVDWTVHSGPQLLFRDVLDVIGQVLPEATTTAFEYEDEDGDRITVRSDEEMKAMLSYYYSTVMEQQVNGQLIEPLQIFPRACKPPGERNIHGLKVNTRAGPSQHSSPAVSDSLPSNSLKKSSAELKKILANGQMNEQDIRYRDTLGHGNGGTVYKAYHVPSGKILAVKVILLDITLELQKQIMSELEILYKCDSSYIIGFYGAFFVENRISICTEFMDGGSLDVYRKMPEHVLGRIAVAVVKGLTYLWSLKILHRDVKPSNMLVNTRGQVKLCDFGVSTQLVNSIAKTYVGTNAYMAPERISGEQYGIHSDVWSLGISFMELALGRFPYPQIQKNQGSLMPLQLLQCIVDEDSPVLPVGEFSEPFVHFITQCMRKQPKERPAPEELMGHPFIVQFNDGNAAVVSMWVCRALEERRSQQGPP
As to the kind of experiment: Inhibition of MEK5 (unknown origin) by LanthaScreen assay.

Assay [20] concerns the target T2, Tyrosine-protein kinase BTK. As to the kind of experiment: Binding affinity to BTK (unknown origin) assessed as covalent bond formation by measuring cysteine 481-labeling by mass spectrometry analysis relative to control.
The target in assay [21] is T4, Tyrosine-protein kinase JAK3 (Homo sapiens). As to the kind of experiment: Binding affinity to JAK3 JH1 domain (unknown origin) assessed as covalent bond formation by measuring cysteine 909-labeling by mass spectrometry analysis relative to control.
Assay [22] relates to Tyrosine-protein kinase BTK (Homo sapiens), Q06187 [C481S]. As to the kind of experiment: Displacement of K-10 tracer from BTK C481S mutant in HEK293T cells expressing NanoLuc preincubated for 3 hrs followed by tracer addition and measured after 1 hr by NanoBRET analysis. Type of assay: cell-based. Conditions: time 4.0 hrs.
Sequence of Tyrosine-protein kinase BTK (Homo sapiens), Q06187 [C481S] (Q06187 whole entry C481S): as the sequence (Q06187 whole entry) above, with C481S counted along it
The subject of another assay is HEK293T. As to the kind of experiment: Displacement of K-4 tracer from BLK C319S mutant in HEK293T cells expressing NanoLuc preincubated for 3 hrs followed by tracer addition and measured after 1 hr by NanoBRET analysis. Type of assay: cell-based. The note with it: Homo sapiens, time 4.0 hrs.
The subject of assay [23] is BaF3. In words: Inhibition of biotinylated osimertinib binding to EGFR L858R mutant in mouse BaF3 cells preincubated for 3 hrs followed by biotinylated osimertinib addition and incubated overnight by competitive pulldown based Western blot analysis. In kind it is cell-based. Conditions: dose 0.2-10 µM.

Activity calls are given as the source filed them. The calls are words filed in the database; no cut-off is given here.

Take `C=CC(=O)N1CCC(Oc2nn(C(C)(C)C)c3ncnc(N)c23)CC1`: the IC50 stood at 604 nM in the assay “cells” and 3620 nM in the assay with BaF3 [1].

Regarding `C=CC(=O)N1CCC(Oc2nn(C(C)(C)C)c3ncnc(N)c23)C1` (centres undefined), the IC50 in “cells” is 2400 nM; with BaF3 [1] it was 5990 nM.

For the molecule `CCC(=O)N1CC(Oc2nn(C(C)(C)C)c3ncnc(N)c23)C1`, the IC50 in assay [2] was over 10000 nM; in assay [3], over 10000 nM; in [4], over 10000 nM; in assay [5], over 10000 nM; in [6], over 30000 nM; in [7], over 30000 nM. For the same molecule, the inhibition result (with BaF3 [8]; in [9]; in [10]; in assay [11]; in [12]) was “inactive” throughout.

Consider `C=CC(=O)N1CC(Oc2nn(C(C)(C)C)c3ncnc(N)c23)C1`, for which the result in assay [13], in [14], in assay [15], in [16], in assay [17] and in assay [18] was Active. In addition, the IC50 in [2] is 242 nM; in assay [3], 59.2 nM; in [4], 105 nM; in [19], over 10000 nM; in assay [7] it was 865 nM. Besides, the Activity worked out at 80% in [20] and 60% in assay [21]. Also, the outcome (in assay [22]; in the assay on HEK293T) was inactive. Moreover, the inhibition entry in the assay on BaF3 [23] is “Dose-Dependent Effect”. Besides, the inhibition entry in assay [9], in assay [10], in [11] and in assay [12] was “Active” each time.

For `C=CC(=O)Nc1cc(Nc2nccc(-c3cn(C)c4ccccc34)n2)c(OC)cc1N(C)CCN(C)C` [OSIMERTINIB], the IC50 in “cells” came to 2.4 nM; in the assay on BaF3 [1], 19 nM.

On to `C=CC(=O)N1CCCC(Oc2nn(C(C)(C)C)c3ncnc(N)c23)C1` (centres undefined), for which the IC50 in “cells” was 10600 nM; in the assay with BaF3 [1] it was over 10000 nM.

A word on the IC50: it is the concentration that inhibits the measured activity by half. A higher IC50 goes with weaker potency in that assay.

Source of the values: ChEMBL document CHEMBL5528037 (J Med Chem, 2024).
